{"source": "patent US20150217002A1", "about": "“NEAR-INFRARED SPECTROSCOPY AND OPTICAL REPORTER” (THE RESEARCH FOUNDATION FOR THE STATE UNIVERSITY OF NEW YORK, priority 2012, published 2015)", "origin": "cited, not measured here", "key": {"[1]": {"conditions": "in blood excited with 800 nm light, 0.08 mg/L"}, "[2]": {"conditions": "removed from the circulation system by the liver"}}, "data": [{"molecule": "CC1(C)C(/C=C/C=C/C=C/C=C2\\N(CCCCS(=O)(=O)O)c3ccc4ccccc4c3C2(C)C)=[N+](CCCCS(=O)(=O)[O-])c2ccc3ccccc3c21", "note": "[ICG, indocyanine green]", "values": [{"measurement": "quantum yield", "setting": "[1]", "result": "about 0.013"}, {"measurement": "in vivo half-life", "setting": "[2]", "result": "about 3 minutes"}]}]}
